How the values were obtained:
Type in all cases: in vivo
[1] = system: sedge, umbrella (small-flower umbrella sedge, Cyperus difformis); test: Test B flooded paddy test; conditions: Flood, 250 g ai/ha; 0 to 100 scale where 0 is no effect and 100 is complete control; 13 to 15 d
Procedure, shortened: (§1)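 Response scored visually against untreated controls, 0 = no effect and 100 = complete control, 13–15 d after treatment in the greenhouse. Compounds added to paddy water held 3 cm above soil surface. Treatment given at 2-leaf stage.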

[2] = system: barnyardgrass (Echinochloa crus-galli); test: Test B flooded paddy test; conditions: Flood, 250 g ai/ha; 0 to 100 scale where 0 is no effect and 100 is complete control; 13 to 15 d
Procedure, shortened: as §1

[3] = system: rice (Oryra sativa); test: Test B flooded paddy test; conditions: Flood, 250 g ai/ha; 0 to 100 scale where 0 is no effect and 100 is complete control; 13 to 15 d
Procedure, shortened: as §1

[4] = system: ducksalad (Heteranthera limosa); test: Test B flooded paddy test; conditions: Flood, 250 g ai/ha; 0 to 100 scale where 0 is no effect and 100 is complete control; 13 to 15 d
Procedure, shortened: as §1

[5] = system: blackgrass (Alopecurus myosuroides); test: Test A postemergence; conditions: postemergence; for Blackgrass plant response rating: 125 g ai/ha, visual injury rating on 0 to 100 scale (0 no effect, 100 complete control), approx. 10 d; for Plant response rating, Blackgrass: 500 g ai/ha, 0 to 100 scale, 0 no effect, 100 complete control
Procedure, shortened: (§2)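 Ratings of 0 (no effect) to 100 (complete control) come from visual comparison with untreated controls roughly 10 d after treatment. Test chemicals, formulated in a non-phytotoxic solvent mixture with surfactant, were applied either as a preemergence directed soil spray on seeded soil or postemergence to one- to two-leaf plants 2 to 10 cm tall.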

[6] = system: ragweed (common ragweed, Ambrosia elatior); test: Test A postemergence; conditions: for Ragweed plant response rating: 125 g ai/ha, postemergence, visual injury rating on 0 to 100 scale (0 no effect, 100 complete control), approx. 10 d; for Plant response rating, Ragweed: Postemergence, 500 g ai/ha, 0 to 100 scale where 0 is no effect and 100 is complete control
Procedure, shortened: as §2

[7] = system: Galium (catchweed bedstraw, Galium aparine); test: Test A postemergence; conditions: for Galium plant response rating: 125 g ai/ha, postemergence, visual injury rating on 0 to 100 scale (0 no effect, 100 complete control), approx. 10 d; for Plant response rating, Galium: Postemergence, 500 g ai/ha, 0 to 100 scale where 0 is no effect and 100 is complete control
Procedure, shortened: as §2

[8] = system: giant foxtail (Setaria faberii); test: Test A postemergence; conditions: for Foxtail, Giant plant response rating: 125 g ai/ha, postemergence, visual injury rating on 0 to 100 scale (0 no effect, 100 complete control), approx. 10 d; for Plant response rating, Foxtail, Giant: Postemergence, 500 g ai/ha, 0 to 100 scale where 0 is no effect and 100 is complete control
Procedure, shortened: as §2

[9] = system: barnyardgrass (Echinochloa crus-galli); test: Test A postemergence; conditions: postemergence; for Barnyardgrass plant response rating: 125 g ai/ha, visual injury rating on 0 to 100 scale (0 no effect, 100 complete control), approx. 10 d; for Plant response rating, Barnyardgrass: 500 g ai/ha, 0 to 100 scale, 0 no effect, 100 complete control
Procedure, shortened: as §2

[10] = system: Kochia (Kochia scoparia); test: Test A postemergence; conditions: for Kochia plant response rating: 125 g ai/ha, postemergence, visual injury rating on 0 to 100 scale (0 no effect, 100 complete control), approx. 10 d; for Plant response rating, Kochia: Postemergence, 500 g ai/ha, 0 to 100 scale where 0 is no effect and 100 is complete control
Procedure, shortened: as §2

[11] = system: ryegrass, Italian (Italian ryegrass, Lolium multiflorum); test: Test A postemergence; conditions: for Ryegrass, Italian plant response rating: 125 g ai/ha, postemergence, visual injury rating on 0 to 100 scale (0 no effect, 100 complete control), approx. 10 d; for Plant response rating, Ryegrass, Italian: Postemergence, 500 g ai/ha, 0 to 100 scale where 0 is no effect and 100 is complete control
Procedure, shortened: as §2

[12] = system: wheat (Triticum aestivum); test: Test A postemergence; conditions: for Wheat plant response rating: 125 g ai/ha, postemergence, visual injury rating on 0 to 100 scale (0 no effect, 100 complete control), approx. 10 d; for Plant response rating, Wheat: Postemergence, 500 g ai/ha, 0 to 100 scale where 0 is no effect and 100 is complete control
Procedure, shortened: as §2

[13] = system: pigweed (Amaranthus retroflexus); test: Test A postemergence; conditions: for Pigweed plant response rating: 125 g ai/ha, postemergence, visual injury rating on 0 to 100 scale (0 no effect, 100 complete control), approx. 10 d; for Plant response rating, Pigweed: Postemergence, 500 g ai/ha, 0 to 100 scale where 0 is no effect and 100 is complete control
Procedure, shortened: as §2

[14] = system: corn (Zea mays); test: Test A postemergence; conditions: postemergence; for Corn plant response rating: 125 g ai/ha, visual injury rating on 0 to 100 scale (0 no effect, 100 complete control), approx. 10 d; for Plant response rating, Corn: 500 g ai/ha, 0 to 100 scale, 0 no effect, 100 complete control
Procedure, shortened: as §2

[15] = system: ragweed (common ragweed, Ambrosia elatior); test: Test A preemergence; conditions: Preemergence; for Plant response rating, Ragweed: 125 g ai/ha, visual injury after approximately 10 d, 0 to 100 scale where 0 is no effect and 100 is complete control; for Ragweed plant response rating (0 to 100 scale, 0 is no effect, 100 is complete control): 500 g ai/ha, visual injury approx. 10 d
Procedure, shortened: as §2

[16] = system: giant foxtail (Setaria faberii); test: Test A preemergence; conditions: for Plant response rating, Foxtail, Giant: 125 g ai/ha, preemergence, 0 to 100 scale (0 no effect, 100 complete control); for Foxtail, Giant plant response rating (0 to 100 scale, 0 is no effect, 100 is complete control): Preemergence, 500 g ai/ha, visual injury approx. 10 d
Procedure, shortened: as §2

[17] = system: barnyardgrass (Echinochloa crus-galli); test: Test A preemergence; conditions: for Plant response rating, Barnyardgrass: 125 g ai/ha, preemergence, 0 to 100 scale (0 no effect, 100 complete control); for Barnyardgrass plant response rating (0 to 100 scale, 0 is no effect, 100 is complete control): Preemergence, 500 g ai/ha, visual injury approx. 10 d
Procedure, shortened: as §2

[18] = system: Kochia (Kochia scoparia); test: Test A preemergence; conditions: for Plant response rating, Kochia: 125 g ai/ha, preemergence, 0 to 100 scale (0 no effect, 100 complete control); for Kochia plant response rating (0 to 100 scale, 0 is no effect, 100 is complete control): Preemergence, 500 g ai/ha, visual injury approx. 10 d
Procedure, shortened: as §2

[19] = system: ryegrass, Italian (Italian ryegrass, Lolium multiflorum); test: Test A preemergence; conditions: Preemergence; for Plant response rating, Ryegrass, Italian: 125 g ai/ha, visual injury after approximately 10 d, 0 to 100 scale where 0 is no effect and 100 is complete control; for Ryegrass, Italian plant response rating (0 to 100 scale, 0 is no effect, 100 is complete control): 500 g ai/ha, visual injury approx. 10 d
Procedure, shortened: as §2

[20] = system: pigweed (Amaranthus retroflexus); test: Test A preemergence; conditions: Preemergence; for Plant response rating, Pigweed: 125 g ai/ha, visual injury after approximately 10 d, 0 to 100 scale where 0 is no effect and 100 is complete control; for Pigweed plant response rating (0 to 100 scale, 0 is no effect, 100 is complete control): 500 g ai/ha, visual injury approx. 10 d

Row | SMILES | Plant response rating, Sedge, Umbrella [1] | Plant response rating, Barnyardgrass [2] | Plant response rating, Rice [3] | Plant response rating, Ducksalad [4] | Blackgrass plant response rating [5] | Plant response rating, Blackgrass [5] | Ragweed plant response rating [6] | Plant response rating, Ragweed [6] | Galium plant response rating [7] | Plant response rating, Galium [7] | Foxtail, Giant plant response rating [8] | Plant response rating, Foxtail, Giant [8] | Barnyardgrass plant response rating [9] | Plant response rating, Barnyardgrass [9] | Kochia plant response rating [10] | Plant response rating, Kochia [10] | Ryegrass, Italian plant response rating [11] | Plant response rating, Ryegrass, Italian [11] | Wheat plant response rating [12] | Plant response rating, Wheat [12] | other results
1 | O=C1NCC(c2ccc(C(F)(F)F)cc2F)C1C(=O)Nc1cccc(F)c1F (stereo not drawn) [Compound 475] | 0 | 20 | 15 | 100 | 30 | 40 | 20 | 30 | 50 | 60 | 90 | 90 | 90 | 90 | 40 | 60 | 20 | 30 | 0 | 30 | Pigweed plant response rating [13]: 50; Plant response rating, Pigweed [13]: 70; Corn plant response rating [14]: 0; Plant response rating, Corn [14]: 60; Plant response rating, Ragweed [15]: 50; Ragweed plant response rating (0 to 100 scale, 0 is no effect, 100 is complete control) [15]: 60; Plant response rating, Foxtail, Giant [16]: 90; Foxtail, Giant plant response rating (0 to 100 scale, 0 is no effect, 100 is complete control) [16]: 90; Plant response rating, Barnyardgrass [17]: 90; Barnyardgrass plant response rating (0 to 100 scale, 0 is no effect, 100 is complete control) [17]: 90; Plant response rating, Kochia [18]: 70; Kochia plant response rating (0 to 100 scale, 0 is no effect, 100 is complete control) [18]: 70; Plant response rating, Ryegrass, Italian [19]: 20; Ryegrass, Italian plant response rating (0 to 100 scale, 0 is no effect, 100 is complete control) [19]: 40; Plant response rating, Pigweed [20]: 60; Pigweed plant response rating (0 to 100 scale, 0 is no effect, 100 is complete control) [20]: 90
2 | C=C(Cl)CN1CC(c2cccc(C(F)(F)F)c2)C(C(=O)Nc2cccc(F)c2F)C1=O (stereo not drawn) [Compound 480] | 0 | 0 | 0 | 0 | 0 | 0 | 0 | 0 | 0 | 0 | 20 | 50 | 0 | 30 | 0 | 0 | 0 | 0 | 0 | 30 | Pigweed plant response rating [13]: 0; Plant response rating, Pigweed [13]: 0; Corn plant response rating [14]: 0; Plant response rating, Corn [14]: 0; Plant response rating, Ragweed [15]: 0; Ragweed plant response rating (0 to 100 scale, 0 is no effect, 100 is complete control) [15]: 0; Plant response rating, Foxtail, Giant [16]: 70; Foxtail, Giant plant response rating (0 to 100 scale, 0 is no effect, 100 is complete control) [16]: 90; Plant response rating, Barnyardgrass [17]: 0; Barnyardgrass plant response rating (0 to 100 scale, 0 is no effect, 100 is complete control) [17]: 0; Plant response rating, Kochia [18]: 0; Kochia plant response rating (0 to 100 scale, 0 is no effect, 100 is complete control) [18]: 0; Plant response rating, Ryegrass, Italian [19]: 0; Ryegrass, Italian plant response rating (0 to 100 scale, 0 is no effect, 100 is complete control) [19]: 0; Plant response rating, Pigweed [20]: 0; Pigweed plant response rating (0 to 100 scale, 0 is no effect, 100 is complete control) [20]: 0

Reference: US12077503B2, “Substituted cyclic amides and their use as herbicides” (FMC CORPORATION, priority 2015, dated 2024)
